From patent publication US10111877B2, “Modulators of androgen synthesis” (Tangent Reprofiling Limited, priority 2012, dated 2018)
Like-named read-outs stand apart in the source and are kept apart here.

How the values were obtained:
BxPC-3 cells = assay: Orthotopic pancreatic tumor mouse xenograft model; assay type: in vivo, mice (athymic nude mice); design: key to Pancreatic tumor weight, vs vehicle / Bioluminescence imaging Area, vs vehicle / Bioluminescence imaging Average radiation, vs vehicle / Bioluminescence imaging Total flux, vs vehicle / Bioluminescence imaging Area (day 34), vs vehicle / Bioluminescence imaging Average radiation (day 34), vs vehicle / Bioluminescence imaging Total flux (day 34), vs vehicle / Body weight curves, vs vehicle / Body weight at sacrifice relative to Day −1 body weight, vs vehicle: ***: statistically significant difference with p-value <0.001; **: p-value <0.01; *: p-value <0.05; p-value <0.1; NS: Non-Significant; details: 60 mg/kg intraperitoneal every third day
Method: Animals were divided into four groups of 10 mice each which underwent the following treatment regime: Group 1, daily oral administration of vehicle comprising 1% (v/v) ethanol, 20% (v/v) PEG 400, 79% (v/v) acid solution and 0.4% (w/v) TWEEN™ 80 at a final pH of 3.1-3.3 (Control); Group 2, intraperitoneal administration of 60 mg/kg of Reference Compound gemcitabine every third day for four rounds followed by one week rest before repeating the dosing; Group 3, daily oral administration of 1 mg/kg of Test Compound VAL401; and Group 4, daily administration of 2 mg/kg Test Compound VAL401. Administration of Test and Reference Compounds began on Day 1 and continued until Day 33. Body weights of the animals were measured two times a week throughout the in-life phase and blood samples for PK analyses were collected from saphenous vein from all animals 2 hours after compound administration at study Day 24. […] The animals were sacrificed at Day 34. At the termination, brain tissues were collected and frozen. Tumors were weighed, measured in three dimensions followed by fixation and embedding in paraffin for possible histopathological assessment. Also spleen, liver and lungs were collected for possible analysis.
Statistical analysis was performed with statistical software R (version 3.1.2). The parameters with multiple measurements in different time points per animal were analyzed using mixed-effects models and model contrasts. […] The obtained p-values values were adjusted for multiple comparisons if necessary. The continuous valued end-point parameters were analyzed using parametric or non-parametric test. If the groups were normally distributed with equal variance, parametric one-way ANOVA followed by Tukey's HSD post hoc test was used. If the assumptions were not fulfilled as such or after data transform (e.g. logarithmic), nonparametric Kruskal-Wallis test followed by Mann-Whitney U test was used.

PC3 cells [1] = assay: Cell metabolism inhibition assay (Cell titre Blue) with fatty acids; assay type: cell-based; details: for Cellular Metabolic Activity: 100% = undrugged media
Method: A cell metabolism inhibition assay was performed to determine the effect of different fatty acids on cellular metabolic rate. The fatty acids tested were α-Linolenic acid, omega 3 fatty acid (ALA), Arachidonic acid, omega 6 fatty acid (AA), 9Z, 11E conjugated Linoleic acid, omega 7 fatty acid (CLA), Docosahexaenoic acid, omega 3 fatty acid (DHA), Eicosapentaenoic acid, omega 3 fatty acid (EPA), Oleic acid, omega 9 fatty acid (OA), Ricinoleic acid, omega 9 hydroxylated fatty acid (RA).
PC3 cells are from a cell line derived from a hormone refractory prostate cancer and are known to overexpress HSD10. PC3 cells were seeded at a density of 4,000 cells per well in a 96 well plate, and incubated at 37° C., 5% CO2 for 48 hours in standard growth media (F12K nutrient media, 7% Fetal Calf Serum, 2 mM L-Glutamine, 45 mg/L ascorbic acid). The media was then removed by pipette and replaced with the appropriate drug treatment as follows: 20 μM, or 40 μM, or 60 μM, or 80 μM, or 100 μM ALA in PC3 treatment media (F12K nutrient media, 125 uM fatty acid free BSA, 2 mM L-Glutamine, 45 mg/L ascorbic acid); 20 μM, or 40 μM, or 60 μM, or 80 μM, or 100 μM AA in PC3 treatment media; 20 μM, or 40 μM, or 60 μM, or 80 μM, or 100 μM CLA in PC3 treatment media; 20 μM, or 40 μM, or 60 μM, or 80 μM, or 100 μM DHA in PC3 treatment media; 20 μM, or 40 μM, or 60 μM, or 80 μM, or 100 μM EPA in PC3 treatment media; 20 μM, or 40 μM, or 60 μM, or 80 μM, or 100 μM OA in PC3 treatment media; and 20 μM, or 40 μM, or 60 μM, or 80 μM, or 100 μM RA in PC3 treatment media. After incubation in the drug treatment for 72 hours at 37° C., 5% CO2, 50 μL Cell titre Blue Assay Reagent was added to each well and the plate return to incubation at 37° C., 5% CO2, for a further 24 hours, at which time the absorbance at 620 nm was recorded. The reduction of absorbance at 620 nm represents a higher metabolic rate, and the data below has been normalized such that 100% represents cells that have been grown in the presence of undrugged media, and 0% represents wells containing no cells.

PC3 cells [2] = assay: Cell growth inhibition, lysed cell LDH assay, prostate cancer cell line; assay type: cell-based; details: 96 hours, 100% = no drug treatment (Table 3);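 further: 100% is cells receiving no drug treatment and 0% is wells without cells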
Method: To determine whether Risperidone could be effective in inhibiting growth of cancer cells overexpressing HSD10, a lysed cell LDH assay was conducted using cells from a PC3 cell line.
(§1) PC3 cells are from a cell line derived from a hormone refractory prostate cancer and are known to overexpress HSD10. […] Cells line tests were carried out in presence and absence of testosterone for comparison. After incubation in the drug treatment for 96 hours at 37° C., 5% CO2, the supernatant was removed from all wells of cells, and cells washed with 200 μL PBS.
(§2) After removal of the PBS, cell number was determined using a lysed cell LDH assay (CytoTox 96 Non-radioactive cytotoxicity assay (LDH Assay); Promega, Co., Madison Wis.). Cells were lysed with 0.9% Triton-X in PBS for 2 hours at 37° C., 5% CO2 and 50 μL of this cell lysate was transferred to a fresh 96 well plate. About 50 μL of CytoTox 96 assay reagent was added to the transferred cell lysate and this mixture was incubated at room temperature in the dark for 20 minutes. After the addition of 50 μL stop reagent, the optical absorbance was determined for each incubated mixture at 492 nm. […] The mean and standard error was calculated from at least 3 wells.
To determine the optimal concentration of Risperidone and CLA necessary to inhibit cell growth, a lysed cell LDH assay was conducted using various concentration of Risperidone and CLA. PC3 cells were cultured and a lysed cell LDH assay was conducted as described above, except that the various drug treatments evaluated contained either 0 μM, 12.5 μM, 25 μM, or 50 μM Risperidone in combination with 0 μM, 6.25 μM, 12.5 μM, 25 μM, 50 μM, or 100 μM CLA (see Table 3).
as §2, with “PBS from the cell cultures described above,” for “PBS,”, “assay.” for “assay (CytoTox 96 Non-radioactive cytotoxicity assay (LDH Assay); Promega, Co., Madison Wis.).”

PC-3M-luc cells = assay: Orthotopic prostate tumor mouse xenograft model; details: single drug
Method: Immunodeficeint male mice (athymic nude mice) were acclimated to the laboratory for at least one week prior to implantation of tumor. PC-3M-luc cells obtained directly from in vitro culture were then injected into the prostate on Day 0. Animals were divided into six groups of 12 mice each. Primary tumor size and metastases were assessed by bioluminescence measurements on day 6, 13, 20, 27, 34, and 40. On day 7 a five week treatment regime was initiated. Both individual drug and high and low dose combination were examined by administering the drugs twice daily on an individual body weight basis using a dose escalation protocol (Table 7). If tumors grew above a pre-determined level, or mice lost more than 10% of bodyweight, they were culled. The primary tumor was excised, weighed and measured. Individual organs were imaged to assess metastatic burden.

HSD10 = target: T1, HSD10 (Homo sapiens, UniProt Q99714); assay: HSD10 Enzyme Inhibition Assay; assay type: biochemical; details: 50 μM drug
T1 construct: endogenous in cells; host or cells: PC3 cells
T1 sequence (Q99714 1-261): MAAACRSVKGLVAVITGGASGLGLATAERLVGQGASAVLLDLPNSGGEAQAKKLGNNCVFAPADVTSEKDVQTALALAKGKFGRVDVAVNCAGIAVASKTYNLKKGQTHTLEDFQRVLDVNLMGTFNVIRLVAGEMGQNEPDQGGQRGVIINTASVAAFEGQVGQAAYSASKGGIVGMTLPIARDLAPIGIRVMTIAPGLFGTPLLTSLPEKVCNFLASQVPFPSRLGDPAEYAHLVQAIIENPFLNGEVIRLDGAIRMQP
Method: An HSD10 inhibition assay was performed to determine the effect of several anti-psychotics on enzyme activity.
as §1, §2

[3] = read-out: Oxidative Activity Drug Inhibition
[4] = read-out: Reductive Activity Drug Inhibition

Structure (SMILES)	Cellular Metabolic Activity (PC3 cells [1]; 20 μM fatty acid) [%]	Cellular Metabolic Activity (PC3 cells [1]; 40 μM fatty acid) [%]	Cellular Metabolic Activity (PC3 cells [1]; 60 μM fatty acid) [%]	Cellular Metabolic Activity (PC3 cells [1]; 80 μM fatty acid) [%]	Cellular Metabolic Activity (PC3 cells [1]; 100 μM fatty acid) [%]	inhibition at 50 µM (HSD10; [3]) [%]	inhibition at 50 µM (HSD10; [4]) [%]	further results
Nc1ccn([C@@H]2O[C@H](CO)[C@@H](O)C2(F)F)c(=O)n1 [Gemcitabine, gemcitabine]								Bioluminescence imaging Area (day 34), vs vehicle (BxPC-3 cells): NS; Bioluminescence imaging Area, vs vehicle (BxPC-3 cells): NS; Bioluminescence imaging Average radiation (day 34), vs vehicle (BxPC-3 cells): NS; Bioluminescence imaging Average radiation, vs vehicle (BxPC-3 cells): NS; Bioluminescence imaging Total flux (day 34), vs vehicle (BxPC-3 cells): NS; Bioluminescence imaging Total flux, vs vehicle (BxPC-3 cells): NS; Body weight at sacrifice relative to Day −1 body weight, vs vehicle (BxPC-3 cells): NS; Body weight curves, vs vehicle (BxPC-3 cells): NS; Pancreatic tumor volume, vs vehicle (BxPC-3 cells): ↓**; Pancreatic tumor weight, vs vehicle (BxPC-3 cells): NS
CCCCCC[C@@H](O)C/C=C\CCCCCCCC(=O)O [RA, Ricinoleic acid]	91 ± 6.0	94 ± 4.7	90 ± 6.2	90 ± 6.0	94 ± 3.1			
CC/C=C\C/C=C\C/C=C\C/C=C\C/C=C\C/C=C\CCC(=O)O [DHA, Docosahexaenoic acid]	90 ± 8.2	74 ± 7.6	58 ± 5.9	49 ± 7.7	34 ± 7.0			metabolic inhibition (PC3 cells [1]; 60-100 μM range): 40-65%; Percentage of Lysed Cells (PC3 cells [2]; 12.5 μM of each drug): 109 ± 1.1%; Percentage of Lysed Cells (PC3 cells [2]; 25 μM of each drug): 102 ± 3.5%; Percentage of Lysed Cells (PC3 cells [2]; 50 μM of each drug): 95 ± 3.8%
CCCCCCCC/C=C\CCCCCCCC(=O)O [OA, Oleic acid]	109 ± 2.7	108 ± 0.9	111 ± 2.2	110 ± 2.2	111 ± 2.0			
CC/C=C\C/C=C\C/C=C\CCCCCCCC(=O)O [ALA, α-Linolenic acid]	118 ± 0.5	118 ± 0.9	118 ± 0.2	117 ± 0.9	114 ± 1.2			
CC(=O)O[C@@]12CO[C@@H]1C[C@H](O)[C@@]1(C)C(=O)[C@H](O)C3=C(C)[C@@H](OC(=O)[C@H](O)[C@@H](NC(=O)OC(C)(C)C)c4ccccc4)C[C@@](O)([C@@H](OC(=O)c4ccccc4)[C@H]21)C3(C)C [Docetaxel]								body weight throughout the study (PC-3M-luc cells; by Day 40): on a trend of losing weight; Tumor Growth Inhibition (PC-3M-luc cells; calculated on Day 34, dosing per Table 7): 94%; Animal Survival (overall survivorship) (PC-3M-luc cells; day 40, dosing per Table 7): 100%
CN(C)CCOC(c1ccccc1)c1ccccc1 [Diphenhydramine]						5	6	Oxidative Activity Rate (HSD10): 8.0 µM/min; Reductive Activity Rate (HSD10): 8.3 µM/min
CN(C)CCCN1c2ccccc2Sc2ccc(Cl)cc21 [Chlorpromazine]						8	18	Oxidative Activity Rate (HSD10): 7.7 µM/min; Reductive Activity Rate (HSD10): 7.2 µM/min
CN(C)CCCN1c2ccccc2CCc2ccc(Cl)cc21 [Clomipramine]						73	15	Oxidative Activity Rate (HSD10): 2.3 µM/min; Reductive Activity Rate (HSD10): 7.5 µM/min
CN1CCN(C2=Nc3cc(Cl)ccc3Nc3ccccc32)CC1 [Clozapine]						43	15	
CCCCC/C=C\C/C=C\C/C=C\C/C=C\CCCC(=O)O [AA, Arachidonic acid]	107 ± 3.9	90 ± 5.6	78 ± 6.4	66 ± 7.2	60 ± 5.9			
CC/C=C\C/C=C\C/C=C\C/C=C\C/C=C\CCCC(=O)O [EPA, Eicosapentaenoic acid]	94 ± 9.4	71 ± 8.2	67 ± 7.4	49 ± 7.4	37 ± 5.9			metabolic inhibition (PC3 cells [1]; 80-100 μM range): 50-65%
